Results reported in ChEMBL document CHEMBL1201862, “PubChem BioAssay data set” (2004).
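Protocol summary: plate cells (96-well), add compound at 5 concentrations, incubate 48 h, interpolate endpoints linearly. GI50 = concentration required for 50% inhibition of growth.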 Calls of active or inactive are those of the source. No stated cut-off is given here; in the data, active = GI50 up to about 1.1 µM and inactive = higher.

Assays:
Assay in all cases: growth of human tumour cells (NCI), 48 h
[1] = test system: A549
[2] = test system: ACHN
[3] = test system: CAKI-1
[4] = test system: HCT-116
[5] = test system: HL-60
[6] = test system: HOP-62
[7] = test system: HT-29
[8] = test system: K562
[9] = test system: MCF7
[10] = test system: MDA-MB-435
[11] = test system: MDA-N
[12] = test system: OVCAR-3
[13] = test system: RXF 393
[14] = test system: SF-539
[15] = test system: SK-OV-3
[16] = test system: SN12C
[17] = test system: SNB-19
[18] = test system: TK-10
[19] = test system: SK-MEL-28

SMILES	GI50 [1]	GI50 [2]	GI50 [3]	GI50 [4]	GI50 [5]	GI50 [6]	GI50 [7]	GI50 [8]	GI50 [9]	GI50 [10]	GI50 [11]	GI50 [12]	GI50 [13]	GI50 [14]	GI50 [15]	GI50 [16]	GI50 [17]	GI50 [18]	GI50 [19]
Oc1cc(-c2cccc(OC(F)(F)F)c2)nc2ccc(N3CCCC3)cc12	0.0103 µM (active)	0.000622 µM (active)	0.01 µM (active)	0.000121 µM (active)	< 0.0001 µM (active)	0.000441 µM (active)	0.000217 µM (active)	< 0.0001 µM (active)	0.0337 µM (active)	< 0.0001 µM (active)	< 0.0001 µM (active)	< 0.0001 µM (active)	0.000116 µM (active)	0.000147 µM (active)	0.000117 µM (active)	0.00041 µM (active)	0.00018 µM (active)	0.00457 µM (active)	
O=C(O)CCSc1nnc(COc2ccc(Cl)cc2)n1-c1ccccc1	> 100 µM (inactive)	> 100 µM (inactive)	> 100 µM (inactive)	> 100 µM (inactive)	> 100 µM (inactive)	> 100 µM (inactive)	> 100 µM (inactive)	> 100 µM (inactive)	> 100 µM (inactive)	> 100 µM (inactive)	> 100 µM (inactive)	> 100 µM (inactive)	> 100 µM (inactive)	> 100 µM (inactive)	> 100 µM (inactive)	> 100 µM (inactive)	> 100 µM (inactive)	> 100 µM (inactive)	> 100 µM (inactive)
c1ccc(CNc2c3c(nc4ccccc24)CCC3)cc1	15.1 µM (inactive)	17.5 µM (inactive)	15.3 µM (inactive)	9.1 µM (inactive)	0.0303 µM (active)	8.97 µM (inactive)	5.52 µM (inactive)	5.58 µM (inactive)	13.8 µM (inactive)	15.3 µM (inactive)	14.7 µM (inactive)	12.2 µM (inactive)	14 µM (inactive)	14.5 µM (inactive)	15.4 µM (inactive)	16.4 µM (inactive)	23 µM (inactive)	13 µM (inactive)	11.8 µM (inactive)
O=C1CC2SC(COCc3ccccc3)(CCN2Cc2ccccc2)C1 (stereo not drawn)	51.2 µM (inactive)	82.2 µM (inactive)	> 100 µM (inactive)	44.2 µM (inactive)	18 µM (inactive)	> 100 µM (inactive)	31.6 µM (inactive)	38.1 µM (inactive)	31 µM (inactive)	51.6 µM (inactive)	71.4 µM (inactive)	> 100 µM (inactive)	> 100 µM (inactive)	> 100 µM (inactive)	> 100 µM (inactive)	> 100 µM (inactive)	> 100 µM (inactive)	19.9 µM (inactive)	> 100 µM (inactive)
c1csc(-c2cc(-c3ccsc3)cs2)c1	44.8 µM (inactive)	> 100 µM (inactive)	> 100 µM (inactive)	> 100 µM (inactive)	74.1 µM (inactive)	29.9 µM (inactive)	41.4 µM (inactive)	> 100 µM (inactive)	34.8 µM (inactive)	> 100 µM (inactive)	> 100 µM (inactive)	27.2 µM (inactive)	20.6 µM (inactive)	35.4 µM (inactive)	33.8 µM (inactive)	> 100 µM (inactive)		> 100 µM (inactive)	> 100 µM (inactive)
CC1CC(C#N)=C2NCCCCN2C1=O (stereo not drawn)	> 100 µM (inactive)		> 100 µM (inactive)		> 100 µM (inactive)	> 100 µM (inactive)	> 100 µM (inactive)	> 100 µM (inactive)	> 100 µM (inactive)	> 100 µM (inactive)	> 100 µM (inactive)	> 100 µM (inactive)	> 100 µM (inactive)	> 100 µM (inactive)	> 100 µM (inactive)	> 100 µM (inactive)	> 100 µM (inactive)	> 100 µM (inactive)	> 100 µM (inactive)
Cc1nc(SCC(=O)Nc2ccccc2)c2sc(=S)n(-c3ccccc3)c2n1	> 10 µM (inactive)	> 10 µM (inactive)	> 10 µM (inactive)	> 10 µM (inactive)	> 10 µM (inactive)	8.71 µM (inactive)	> 10 µM (inactive)		> 10 µM (inactive)	> 10 µM (inactive)	> 10 µM (inactive)	> 10 µM (inactive)	> 10 µM (inactive)	4.44 µM (inactive)	> 10 µM (inactive)	> 10 µM (inactive)	8.41 µM (inactive)	> 10 µM (inactive)	> 10 µM (inactive)
C[N+](C)(C)CC(=O)N/N=C/c1ccncc1	> 100 µM (inactive)	> 100 µM (inactive)	> 100 µM (inactive)	> 100 µM (inactive)	65.6 µM (inactive)	> 100 µM (inactive)	> 100 µM (inactive)	> 100 µM (inactive)	> 100 µM (inactive)	> 100 µM (inactive)	> 100 µM (inactive)	> 100 µM (inactive)	> 100 µM (inactive)	> 100 µM (inactive)	> 100 µM (inactive)	> 100 µM (inactive)	> 100 µM (inactive)	> 100 µM (inactive)	> 100 µM (inactive)
CC[C@H]1C=CCC[C@@]2(C[C@@H]3CC[C@@H]4[C@H](C(=O)OCCCCCCCCCCCCCCCC(=O)N(CCCN)C[C@@H](O)CCN)[C@]5(CCC[C@@H](C)O5)NC(=[N+]34)N2)O1	0.282 µM (active)	0.349 µM (active)	0.0528 µM (active)	0.286 µM (active)	0.318 µM (active)	1.13 µM (inactive)	0.299 µM (active)	0.236 µM (active)	0.46 µM (active)	0.0524 µM (active)	0.127 µM (active)	0.887 µM (active)	0.439 µM (active)	0.556 µM (active)	2.05 µM (inactive)	0.766 µM (active)	0.0822 µM (active)	1.44 µM (inactive)	1.27 µM (inactive)
CCOC(=O)C1(CC(=O)O)CCCC1=O (stereo not drawn)	> 100 µM (inactive)	> 100 µM (inactive)	> 100 µM (inactive)	> 100 µM (inactive)	> 100 µM (inactive)	> 100 µM (inactive)	> 100 µM (inactive)	> 100 µM (inactive)	> 100 µM (inactive)	> 100 µM (inactive)	> 100 µM (inactive)	> 100 µM (inactive)	> 100 µM (inactive)	> 100 µM (inactive)	> 100 µM (inactive)	> 100 µM (inactive)	> 100 µM (inactive)	> 100 µM (inactive)	> 100 µM (inactive)
COC12C=CC(CC1)C(C)(C)C2OS(C)(=O)=O (stereo not drawn)	> 100 µM (inactive)	> 100 µM (inactive)	> 100 µM (inactive)	> 100 µM (inactive)	> 100 µM (inactive)	> 100 µM (inactive)	> 100 µM (inactive)	> 100 µM (inactive)	> 100 µM (inactive)	> 100 µM (inactive)	> 100 µM (inactive)	> 100 µM (inactive)	> 100 µM (inactive)	> 100 µM (inactive)	> 100 µM (inactive)	> 100 µM (inactive)	> 100 µM (inactive)	> 100 µM (inactive)	> 100 µM (inactive)
O=C(c1ccccc1)c1cc[n+](C2=C([N-]S(=O)(=O)c3ccccc3)C(=O)c3ccccc3C2=O)cc1	14.5 µM (inactive)	12.7 µM (inactive)	2.36 µM (inactive)	11.3 µM (inactive)	2.15 µM (inactive)	10.6 µM (inactive)	14.4 µM (inactive)	2.65 µM (inactive)	8.79 µM (inactive)	1.72 µM (inactive)	1.86 µM (inactive)	3.1 µM (inactive)	12.4 µM (inactive)	12.9 µM (inactive)	15.4 µM (inactive)	6.85 µM (inactive)	13.8 µM (inactive)	18.3 µM (inactive)	3.22 µM (inactive)
COC(=O)C1=C(C)NC(C)=C(C(=O)OC)C1c1ccc(NO)cc1	18.2 µM (inactive)	12.6 µM (inactive)	13 µM (inactive)	7.59 µM (inactive)	1.53 µM (inactive)	14.6 µM (inactive)	7.01 µM (inactive)	1.86 µM (inactive)	8.11 µM (inactive)	14.1 µM (inactive)	12.2 µM (inactive)	12.9 µM (inactive)	15.8 µM (inactive)	15.8 µM (inactive)	23.4 µM (inactive)	18.7 µM (inactive)	24.6 µM (inactive)	16.5 µM (inactive)	17.5 µM (inactive)
O=C1C(CN2CCCCC2)CCC1CN1CCCCC1 (stereo not drawn)	> 96.6 µM (inactive)	26 µM (inactive)	9.48 µM (inactive)	24.5 µM (inactive)	1.5 µM (inactive)	> 100 µM (inactive)	20.9 µM (inactive)	1.2 µM (inactive)	21.9 µM (inactive)	33 µM (inactive)	15 µM (inactive)	17.1 µM (inactive)	14.8 µM (inactive)	30.6 µM (inactive)	> 100 µM (inactive)	30.4 µM (inactive)	> 100 µM (inactive)	17.8 µM (inactive)	20 µM (inactive)
O=C1Nc2cc([N+](=O)[O-])ccc2N/C1=C/C(=O)c1ccc(Cl)cc1	10 µM (inactive)	15.1 µM (inactive)	17.6 µM (inactive)	3.24 µM (inactive)	19.8 µM (inactive)		15.3 µM (inactive)	3.64 µM (inactive)	11.2 µM (inactive)	18.7 µM (inactive)	24.3 µM (inactive)	20.1 µM (inactive)	3.39 µM (inactive)	10.7 µM (inactive)	19.4 µM (inactive)		11.2 µM (inactive)	3.9 µM (inactive)	10.6 µM (inactive)
